According to patent publication US11992499B2, “Quinoline derivatives for use in the treatment of inflammation diseases” (ABIVAX, priority 2018, dated 2024):

System: Sugen hypoxia model
Assay: Rat Sugen hypoxia model of pulmonary arterial hypertension: mean pulmonary pressure
Type: in vivo
Conditions: for Effect on mean pulmonary arterial pressure: rat Sugen hypoxia model, 70 mg/kg; for Mean Pulmonary Pressure: SuHx
Protocol: Animals from Groups 2 to 5 (see Table 10) receive a single subcutaneous injection of sugen (20 mg/kg in 2 mL/kg volume) solution (10 mg/mL) on Day 0 and returned to their cages. Animals from Group 1 receive one subcutaneous injection of DMSO at 2 mL/kg (vehicle for sugen) on Day 0 and returned to their respective cages.
Groups 2-5 are placed in cages for which the controlled air is adjusted to receive a FiO2 equivalent to 0.10 (10%) using a mixture of nitrogen and ambient air controlled by the ventilated cage system. They are kept under these hypoxic conditions for 21 days. While in hypoxia, cages are cleaned and changed once a week, exposing the animals to ambient oxygen levels for less than 10 minutes. They are exposed to ambient oxygen levels from Day 22 to Day 56. Group 1 animals remain in cages exposed to ambient oxygen (normoxic) levels for 56 days. The animals are observed on a daily basis for any changes in their behaviour and general health status.
Treatment with the compound A, sildenafil or vehicle is administered as of Day 22 (Groups 2-5) as scheduled and described in Table 10. The Groups 2-4 receives a single dose per day. The reference group 5 receives sildenafil twice a day. Food and water are given ad libitum. Daily observation of the behaviour and general health status of the animals is done. Weekly body weight is taken.
Surgical Instrumentation and Measurement of Hemodynamic and Functional Parameters in Efficacy Study Animals • 1. On the selected day of surgery, rats are anaesthetized with a mixture of 2 to 2.5% isoflurane USP (Abbot Laboratories, Montreal, Canada) in oxygen, and placed on a heating pad to maintain body temperature. • 2. Rats are tracheotomized and immediately ventilated by means of a positive-pressure rodent respirator set at ≈10 ml/kg body weight at a frequency of 65-70 strokes/min. • 3. Lead II ECG contact electrodes is placed on the rat to continuously monitor the ECG during the surgical procedure. • 4. A cannula connected to a pressure transducer is inserted into the left femoral artery to measure the arterial blood pressure. • 5. A cannula connected to a pressure transducer is inserted into the right atria through the right jugular vein to measure the right atria pressure. • 6. The heart is exposed through a sternotomy and a 20GA 1.16 in Insyte is introduced into the right ventricle and rapidly hooked up to a saline filled PE-50 catheter connected to a transducer. • 7. Following a few seconds of right ventricular pressure recording, the Insyte is further advanced into the pulmonary artery to allow PAP recording for an additional 60 seconds. • 8. Hemodynamic parameters are recorded continuously for the duration of the procedure or until loss of PAP signal. • 9. Following hemodynamic monitoring, chest cavity is further opened to expose the lung. The muscle over the trachea is dissected away to remove the lungs and heart. Harvested tissue is rinsed with PBS to remove any excess of blood before to be weighed. • 10. For the histology and casting of the lungs, the process is as follows; 1) eight (8) rats per group is reserved to assess the histology of the left lung and is therefore be treated as described in point 12 of this section 8.2; 2) Two (2) rats per group serve to enable quantitative characterization of the three-dimensional vascular structure of the left lung and therefore is treated as described in section 8.3 for casting of the left lung. • 11. For histology, the left lobe is inflated using a 10 mL syringe filled with fixative (10% NBF) with attached blunt tip needle (23 g). Needle tip is inserted into the trachea, held in place with tied suture while another syringe is tied to the pulmonary artery. The lung is inflated gently at physiological pressure (20-25 mmHg) until all lobes are fully, uniformly, and consistently expanded (not allowing fixative to ooze through lung surface). This provides optimal vascular and airway expansion without causing excessive tissue disruption. […]

Row | Compound | Effect on mean pulmonary arterial pressure | Mean Pulmonary Pressure (female rats, 70 mg/kg QD gavage Day 22 to Day 56) | Mean Pulmonary Pressure (female rats, 120 mg/kg QD gavage Day 22 to Day 56) | Mean Pulmonary Pressure (male rats, 70 mg/kg QD gavage Day 22 to Day 56) | Mean Pulmonary Pressure (male rats, 120 mg/kg QD gavage Day 22 to Day 56)
1 | FC(F)(F)Oc1ccc(Nc2ccc3cccc(Cl)c3n2)cc1 [8-Chloro-N-(4-(trifluoromethoxy)phenyl)quinolin-2-amine] | tendency to decrease |  |  |  | 
2 | FC(F)(F)Oc1ccc(Nc2ccc3cccc(Cl)c3n2)cc1 [Compound A, 8-Chloro-N-(4-(trifluoromethoxy)phenyl)quinolin-2-amine] | tendency to decrease | 24.1 mmHg | 34.4 mmHg | 26.8 mmHg | 33.6 mmHg
